Several values for one entry are separate records, joined by “and”; a condition that tells them apart may be missing. Equal values may be shown once.
What was measured:
Assay type in all cases: physicochemical
[1] = Absorption and steady-state fluorescence, fluorescence quantum yield in acetonitrile; conditions: for abs λmax / em λmax / Φf (fluorescence quantum yield) / ε (extinction coefficient): acetonitrile, room temperature; for drop in φf following inclusion of I or Br atoms: relative to unsubstituted analogue (1 for 3 and 4; 2 for 5 and 6)
Description: Absorption spectra were recorded using a Hitachi U-2800 UV-vis-NIR spectrophotometer. Luminescence spectra were recorded using a PTI QuantaMaster spectrofluorimeter using 10×10 mm quartz cuvettes and corrected for detector sensitivity.
The steady-state fluorescence spectra were recorded between 500-800 nm (depending on each compound) upon exciting at the wavelength of the absorbance maxima. The excitation and emission slits were tuned according to the fluorescence quantum yield of each BODIPY (i.e. for compound 7 excitation slits were 5 nm and for compound 4 we used 2 nm). Fluorescence was recorded every 1 nm using 0.1 s integration time. For the Fluorescence lifetime measurements, the excitation rate was 10 MHz, and the detection frequency was less than 100 kHz. Photons were collected at the magic angle. The fluorescence decay traces were fit using FluoFit (Picoquant) software. For steady-state and time-resolved fluorescence measurements a quartz cuvette with a 10 mm path length was used and all the solutions were prepared in air equilibrated acetonitrile.
Quantum yields of fluorescence were measured using PM605 in acetonitrile as a reference. Absorption and emission spectra of PM605 and the dye of interest were measured in acetonitrile at five different concentrations. The integrated intensity versus absorbance were then plotted and fitted linearly. Relative quantum yields of fluorescence for the unknown with respect to the standard were obtained from equation 1, where φ, Δ, and n refer, respectively, to the quantum yield, the slope obtained from the above-mentioned plot, and the solvent refractive index for the unknown (x) or standard (st).

[2] = Gibbs free energy for photoinduced electron transfer (equation 6); conditions: for ΔGeT (Singlet), Gibbs free energy for PeT: PeT from chromanol to singlet excited state; for ΔGeT (Triplet), Gibbs free energy for PeT: PeT from chromanol to triplet excited state, endergonic
Description: Consistent with quenching of the singlet via PeT from the chromanol segment, the Gibbs free energy for photoinduced electron transfer (ΔGeT^0) was exergonic for compounds 7 and 8, in the range of 0.4 eV (see Table 3).
Based on these calculations ΔGeT^0 for PeT from the chromanol to the triplet excited state of 3-6 was endergonic, ca. 0.27 eV, accounting for the small intermolecular rate constant of quenching measured for these compounds in the presence of either PMHC or trolox, and for the long triplet decay rate constant kT recorded for compound 8. Importantly, the efficiency of PeT also relies in the distance between the trap segment and the photosensitizers a factor that may additionally contribute to the differences observed between compound 7 (methylene linker) and compound 8 (ester linker).

[3] = Laser flash photolysis: triplet excited state decay and quenching; conditions: for kq (triplet quenching rate constant) Q = PMHC: Ar saturated acetonitrile; for Triplet decay rate constant kT: T-T absorption at 430 nm or 550 nm, argon saturated solutions; for kT (triplet decay rate constant) Air equilibrated / kT (triplet decay rate constant) Argon Purged / kq (triplet quenching rate constant) Q = ^3O2: acetonitrile; for kq (triplet quenching rate constant) Q = ^3O2: calculated with oxygen solubility 2.42 mM
Description: The 500 mJ/pulse laser output was attenuated yielding 10 mJ laser pulses of 6 ns in duration. Samples were prepared in acetonitrile. The final absorbance of the BODIPY dyes was 0.1. The concentration was kept low to avoid triplet-triplet annihilation. Each sample was de-oxygenated by purging with argon gas for at least 30 min. Quartz cells containing 10×10 mm path length were used. The decay of the BODIPYs was monitored between 420-440 and 520-550 nm (depending the BODIPY) following the laser excitation. Samples were irradiated with a total of 6 laser shots to acquire the temporal evolution of ΔOD.
A second layer of control was subsequently tested via LFP studies, to monitor the extent to which the trap segment deactivates the triplet excited state of the photosensitizes. […] The two quenchers emulate the trap segments utilized in 7 and 8, respectively.

[4] = ^1O2 quantum yield and lifetime, ^1O2 phosphorescence at 1270 nm (direct method); conditions: for ΦΔ^D (singlet oxygen quantum yield, direct): ^1O2 phosphorescence at 1270 nm, air equilibrated acetonitrile
Description: The generation of singlet oxygen and its lifetime were determined from ^1O2 phosphorescence decay curves recorded at 1270 nm upon excitation with a 532 nm Nd:YAG laser. A total of 3 laser shots were applied to acquire a trace. […] Quantum yield of ^1O2 production (φΔ^D) were calculated comparing the intensity of ^1O2 phosphorescence at 1270 nm for the corresponding photosensitizer with that recorded for Rose Bengal (φΔ=0.54).^81

[5] = Electrochemical studies (cyclic voltammetry); design: E^oB^+·/B (reversible oxidation potential): unit not given here; conditions: vs ferrocene, acetonitrile
Description: Electrochemical measurements were performed using a three-electrode system. The working electrode was a Pt wire, a Pt mesh wire was used as the counter electrode, and a Ag/AgCl electrode was used as the reference. A 0.1 M solution of tetrabutylammonium hexafluorophosphate in dry acetonitrile was used as the electrolyte solvent in which the compounds were dissolved to 1 mM or to saturation when the latter occurred before reaching a 1 mM concentration. Concentration was determined from their absorption and calculated extinction coefficient. Solutions also contained ferrocene with a concentration of 1 mM as an internal standard. The solutions were equilibrated with argon, and all measurements were conducted under inert atmosphere, with a minimum scan rate of 0.2 V s^−1. When the acquired cyclic voltammograms were not reversible the scan rate was increased up to 1 V s^−1. Formal redox potentials were calculated from the midpoint of the cathodic and anodic peak potentials observed in the cyclic voltammograms. All values were reported vs ferrocene, with the oxidation of ferrocene measured and corrected to zero for all experiments.

[6] = Phosphorescence studies at 77 K; design: unit not given beside the values; conditions: from phosphorescence emission spectra, 4:1 EtOH:MeOH
Description: Phosphorescence from compounds 3-6 was observed cooling a 4:1 EtOH:MeOH solution to 77 K with liquid nitrogen. Dilute sample solutions (Abs<0.1) were prepared in NMR tubes and suspended in a coldfinger Dewar (custom-made by Ace Glass) filled with liquid nitrogen.

[7] = ^1O2 quantum yield, photooxidation of DMA (indirect method); conditions: consumption of dimethylanthracene, Rose Bengal standard, air equilibrated acetonitrile
Description: Solutions of 9,10-dimethylanthracene (DMA, 50 μM) and photosensitizers (compound 3-10) in air equilibrated acetonitrile were irradiated in 10 mm path length quartz cell (3 ml) with a Nd:Yag laser exciting at 532 nm. Laser excitation was performed at 10 Hz, providing one laser output for every discharge of the flashlamp. An irradiation time of 1 s is equivalent to 10 laser pulses. The energy of each pulse was 10 mJ. The kinetics of DMA photooxidation were studied by following the decrease of the absorbance at λ=377 nm. The observed rate constant (kobs) was obtained by a linear least-squares fit of the semilogarithmic plot of ln [DMA]0/[DMA] (see FIG. 14). Quantum yields of ^1O2 production (φΔ^I) were calculated comparing the kobs=kq [^1O2] for the corresponding photosensitizer with that for Rose Bengal, which was used as a reference (φΔ=0.54).^1 Measurements of the sample and the reference under the same conditions afforded φΔ^I for compounds (3-10) by direct comparison of the slope in the linear region of the plots.
For the indirect detection of ^1O2, it is possible to determine the kq value considering that the production of ^1O2 is constant compare with the initial concentration of DMA. According to these, a pseudo first-order kinetic for this reaction is proposed (equations 2 to 5): […]
The conversion of DMA followed pseudo-first order kinetics with the different photosensitizers (see FIG. 14). From equation 5, it was possible to determine kobs and ^1O2.

Row | SMILES | E00 (HOMO-LUMO gap from intercept of normalized absorption and emission spectra) [1] | abs λmax [1] | em λmax [1] | Φf (fluorescence quantum yield) [1] | ε (extinction coefficient) [1] | drop in φf following inclusion of I or Br atoms [1] | ΔGeT (Singlet), Gibbs free energy for PeT [2] | ΔGeT (Triplet), Gibbs free energy for PeT [2] | kq (triplet quenching rate constant) Q = PMHC [3] | Triplet decay rate constant kT [3] | kT (triplet decay rate constant) Air equilibrated [3] | kT (triplet decay rate constant) Argon Purged [3] | kq (triplet quenching rate constant) Q = ^3O2 [3] | ΦΔ^D (singlet oxygen quantum yield, direct) [4] | E^oB^+·/B (reversible oxidation potential) [5] | E^opc (cathodic peak potential) [5] | E (Triplet), energy of the lowest triplet state [6] | ΦΔ^I (singlet oxygen quantum yield, indirect) [7] | further results
1 | CC(=O)OCC1=C2C(C)=C(Br)C(C)=[N+]2[B-](F)(F)n2c(C)c(Br)c(C)c21 [Compound 6, 8-Acetoxymethyl-2,6-dibromo-1,3,5,7-tetramethyl Pyrromethene Fluoroborate] | 2.25 eV | 543 nm | 562 nm | 0.14 ± 0.02 | 81000 M⁻¹ cm⁻¹ | ~6 fold | −0.43 eV | 0.287 eV | 2.23 ± 0.05 × 10^8 M^−1s^−1 | 27000 s⁻¹ | 6.67 ± 0.04 × 10^6 s^−1 | 2.72 ± 0.03 × 10^4 s^−1 | 2.80 ± 0.02 × 10^9 M^−1s^−1 | 0.84 ± 0.02 | 0.94 | −1.13 | 1.53 | 0.79 ± 0.02 | –
2 | CC(=O)OCC1=C2C(C)=C(I)C(C)=[N+]2[B-](F)(F)n2c(C)c(I)c(C)c21 [Compound 5, 8-Acetoxymethyl-2,6-diiodo-1,3,5,7-tetramethyl Pyrromethene Fluoroborate] | 2.21 eV | 550 nm | 572 nm | 0.02 ± 0.01 | 96000 M⁻¹ cm⁻¹ | ca. 44 fold | −0.4 eV | 0.269 eV | 3.95 ± 0.07 × 10^8 M^−1s^−1 | 17000 s⁻¹ | 7.14 ± 0.04 × 10^6 s^−1 | 1.64 ± 0.02 × 10^4 s^−1 | 3.01 ± 0.01 × 10^9 M^−1s^−1 | 0.98 and 0.98 ± 0.03 | 0.91 | −1.14 | 1.54 | 0.95 ± 0.03 | –
3 | CC1=C(Br)C(C)=[N+]2C1=C(C)c1c(C)c(Br)c(C)n1[B-]2(F)F [Compound 4, 2,6-dibromo-1,3,5,7,8-pentamethyl-pyrromethene fluoroborate] | 2.37 eV | 515 nm | 535 nm | 0.20 and 0.20 ± 0.02 | 79000 M⁻¹ cm⁻¹ | ~4 fold | −0.38 eV | 0.282 eV | 1.29 ± 0.04 × 10^8 M^−1s^−1 | 27000 s⁻¹ | 4.55 ± 0.03 × 10^6 s^−1 | 2.70 ± 0.02 × 10^4 s^−1 | 1.91 ± 0.02 × 10^9 M^−1s^−1 | 0.72 ± 0.02 | 0.89 | – | 1.71 | 0.64 ± 0.03 | –
4 | CC1=C(Br)C(C)=[N+]2C1=C(CC1(C)CCc3c(C)c(O)c(C)c(C)c3O1)c1c(C)c(Br)c(C)n1[B-]2(F)F (stereo not drawn) [Compound 7, 8-((6-Hydroxy-2,5,7,8-tetramethylchroman-2-yl)-methyl)-2,6-dibromo-1,3,5,7-tetramethyl] | – | 532 nm | 557.4 nm | – | 56000 M⁻¹ cm⁻¹ | – | – | – | – | – | – | – | – | – | – | – | – | – | drop in φf caused by the trap segment ([1]; 7 compared to reference 4, 8 compared to 5): ca. 25 fold; intramolecular electron transfer rate constant from the singlet state (keT) ([1]; based on φf≤0.008): ≥ 1e+10 s⁻¹; triplet-triplet absorption ([3]; in contrast to precursor 4): unable to detect any triplet-triplet absorption; ^1O2 generation ([4]; freshly prepared solutions): no ^1O2 generation
5 | CC1=C(I)C(C)=[N+]2C1=C(C)c1c(C)c(I)c(C)n1[B-]2(F)F [Compound 3, 2,6-diiodo-1,3,5,7,8-pentamethyl-pyrromethene fluoroborate] | 2.33 eV | 521 nm | 545 nm | 0.03 ± 0.01 | 83000 M⁻¹ cm⁻¹ | 27 fold | −0.37 eV | 0.262 eV | 1.20 ± 0.05 × 10^8 M^−1s^−1 | 17000 s⁻¹ | 4.35 ± 0.02 × 10^6 s^−1 | 1.68 ± 0.02 × 10^4 s^−1 | 1.82 ± 0.03 × 10^9 M^−1s^−1 | 0.81 and 0.81 ± 0.02 | 0.88 | – | 1.70 | 0.75 ± 0.04 | photodegradation ([4]; under 532 nm irradiation, presumably via photooxidation): photodegrade at a slightly larger pace than 5

— US9969755B2, “Photodynamic therapy photosensitizers” (The Royal Institution for the Advancement of …, priority 2016, dated 2018)
